Measured values reported in ChEMBL document CHEMBL1153627, “Optimization of piperidin-4-yl-urea-containing melanin-concentrating hormone receptor 1 (MCH-R1) antagonists: Reducing hERG-associated liabilities” (Bioorg Med Chem Lett, 2009).

Assay: Clearance in rat
Format: ADME, organism-based
Settings: in vivo

SMILES: O=C(NC1CCN(Cc2ccn(-c3ccc(C(F)(F)F)cc3)c2)CC1)N[C@H](CO)c1ccccc1
- clearance: 154 mL/min/kg
